Data taken from the supplement of paper PMC10307832.

Experiments:
Assay in all cases: relative viability (nuclei count vs DMSO), 5 days (fraction); higher = more cells survive
LCLC-103H = system: LCLC-103H
Method in brief: (§1)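 For relative viability, nuclei counts in treated wells were divided by those in vehicle wells. Lung cancer cell lines had been pin-tool dosed in 1536-well plates the day after seeding and cultured for 5 days, then fixed and stained in one step (final 0.05% Triton X-100, 1% formaldehyde, 1 ug/ml Hoechst) and imaged at 4×. Doses were one drug alone or a fixed anchor-drug dose plus five library-drug doses (not always all listed) in √10 steps, and values are duplicate-plate medians.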

BEN = system: BEN
Method in brief: as §1

HCC-827 = system: HCC-827
Method in brief: as §1

LCLC-97TM1 = system: LCLC-97TM1
Method in brief: as §1

RERF-LC-KJ = system: RERF-LC-KJ
Method in brief: as §1

201T = system: 201T
Method in brief: as §1

NCI-H727 = system: NCI-H727
Method in brief: as §1

NCI-H3122 = system: NCI-H3122
Method in brief: as §1

NCI-H1793 = system: NCI-H1793
Method in brief: as §1

NCI-H2087 = system: NCI-H2087
Method in brief: as §1

NCI-H1395 = system: NCI-H1395
Method in brief: as §1

## CCN(CC)CCCCNc1ncc2cc(-c3cc(OC)cc(OC)c3)c(NC(=O)NC(C)(C)C)nc2n1 + CCNC(=O)c1noc(-c2cc(C(C)C)c(O)cc2O)c1-c1ccc(CN2CCOCC2)cc1 [Luminespib] (partner 0.01 µM)
LCLC-103H; first compound 0.01 µM
  relative viability: 1.07
LCLC-103H; first compound 0.03162 µM
  relative viability: 1.06
LCLC-103H; first compound 0.1 µM
  relative viability: 0.924
LCLC-103H; first compound 0.3162 µM
  relative viability: 1.01
LCLC-103H; first compound 1 µM
  relative viability: 0.739
BEN; first compound 0.01 µM
  relative viability: 0.249
BEN; first compound 0.03162 µM
  relative viability: 0.243
BEN; first compound 0.1 µM
  relative viability: 0.545
BEN; first compound 0.3162 µM
  relative viability: 0.496
BEN; first compound 1 µM
  relative viability: 0.297
HCC-827; first compound 0.01 µM
  relative viability: 0.675
HCC-827; first compound 0.03162 µM
  relative viability: 0.891
HCC-827; first compound 0.1 µM
  relative viability: 0.77
HCC-827; first compound 0.3162 µM
  relative viability: 0.774
HCC-827; first compound 1 µM
  relative viability: 0.587
LCLC-97TM1; first compound 0.01 µM
  relative viability: 0.743
LCLC-97TM1; first compound 0.03162 µM
  relative viability: 0.867
LCLC-97TM1; first compound 0.1 µM
  relative viability: 1.02
LCLC-97TM1; first compound 0.3162 µM
  relative viability: 0.818
LCLC-97TM1; first compound 1 µM
  relative viability: 0.775
RERF-LC-KJ; first compound 0.01 µM
  relative viability: 1.24
RERF-LC-KJ; first compound 0.03162 µM
  relative viability: 1.21
RERF-LC-KJ; first compound 0.1 µM
  relative viability: 1.84
RERF-LC-KJ; first compound 0.3162 µM
  relative viability: 1.35
RERF-LC-KJ; first compound 1 µM
  relative viability: 1.27
201T; first compound 0.01 µM
  relative viability: 1.09
201T; first compound 0.03162 µM
  relative viability: 0.955
201T; first compound 0.1 µM
  relative viability: 1.11
201T; first compound 0.3162 µM
  relative viability: 1.08
201T; first compound 1 µM
  relative viability: 0.932
NCI-H727; first compound 0.01 µM
  relative viability: 0.251
NCI-H727; first compound 0.03162 µM
  relative viability: 0.323
NCI-H727; first compound 0.1 µM
  relative viability: 0.28
NCI-H727; first compound 0.3162 µM
  relative viability: 0.278
NCI-H727; first compound 1 µM
  relative viability: 0.327
NCI-H3122; first compound 0.01 µM
  relative viability: 0.0914
NCI-H3122; first compound 0.03162 µM
  relative viability: 0.082
NCI-H3122; first compound 0.1 µM
  relative viability: 0.112
NCI-H3122; first compound 0.3162 µM
  relative viability: 0.0822
NCI-H3122; first compound 1 µM
  relative viability: 0.127
NCI-H1793; first compound 0.01 µM
  relative viability: 0.345
NCI-H1793; first compound 0.03162 µM
  relative viability: 0.198
NCI-H1793; first compound 0.1 µM
  relative viability: 0.166
NCI-H1793; first compound 0.3162 µM
  relative viability: 0.157
NCI-H1793; first compound 1 µM
  relative viability: 0.156
NCI-H2087; first compound 0.01 µM
  relative viability: 0.172
NCI-H2087; first compound 0.03162 µM
  relative viability: 0.154
NCI-H2087; first compound 0.1 µM
  relative viability: 0.161
NCI-H2087; first compound 0.3162 µM
  relative viability: 0.177
NCI-H2087; first compound 1 µM
  relative viability: 0.158
NCI-H1395; first compound 0.01 µM
  relative viability: 0.659
NCI-H1395; first compound 0.03162 µM
  relative viability: 0.878
NCI-H1395; first compound 0.1 µM
  relative viability: 0.662
NCI-H1395; first compound 0.3162 µM
  relative viability: 0.65
NCI-H1395; first compound 1 µM
  relative viability: 0.48
